Columns and labels:
PBMCs = test: Ex vivo IFNγ ELISpot assay; format: cell-based, human; conditions: for Effector CD8^+ T cell responses across multiple individuals: ex vivo IFNγ ELISpot, HLA-A*02:01-restricted, Fig. 6c
Method: IFNγ ELISpot assays were performed according to the manufacturer’s instructions (Mabtech). PBMCs were incubated with individual peptides from EBV at a final concentration of 0.5 μg ml^−1 for 16–18 h. Positive controls were anti-human CD3 (Clone OKT3, BioLegend, 0.5 μg ml^−1) and anti-human CD28 (Clone CD28.2, BioLegend, 0.5 μg ml^−1) antibodies. The number of spot-forming units in the highest-value DMSO control well was subtracted from each experimental well. Responses were considered positive if both replicates had greater than or equal to five spot-forming units per well above background.

CD8^+ T cells = test: Ex vivo proliferation assay (CellTrace Far Red); format: cell-based, human; conditions: HLA-A*02:01-restricted, Fig. 6d
Method: PBMCs were suspended at 1 × 10^6 cells per ml in 1 μM CellTrace Far Red dye (ThermoFisher) in PBS and incubated at 37 °C for 20 min. Cells were protected from light and mixed every 5 min during the incubation. RPMI supplemented with 10% fetal bovine serum was added to quench the reaction for 5 min, followed by centrifugation at 1,500 rpm for 3 min before resuspension in culture media. Cells were plated into 96-well U-bottom plates (Corning) (200,000 cells per well in 200 μl of culture media) and incubated with individual EBV peptides at a concentration of 0.5 μg ml^−1 for 5 days. Cells were washed with PBS supplemented with 2% fetal bovine serum and stained with anti-human CD3-BUV395 (Clone UCHT1, BD Biosciences, 1:100 dilution), anti-human CD4-PE-Cy7 (Clone OKT4, BioLegend, 1:100 dilution), anti-human CD8-BV605 (Clone SK1, BioLegend, 1:100 dilution) and live/dead violet viability dye (Life Technologies). Cells were washed and fixed in 2% paraformaldehyde and flow cytometric analysis was performed on a BD LSR Fortessa (BD Biosciences).

Sequence	Immunogenicity (T cell reactivity) (PBMCs; HLA-A*02:01, 15mer, LMP2A: 71-85)	Memory CD8^+ T cell responses across multiple individuals (CD8^+ T cells)	Effector CD8^+ T cell responses across multiple individuals (PBMCs)
HSDYQPLGTQDQSLY	immunogenic	–	–
SIIPRTPDV [A*02-SV9]	–	capable of eliciting	capable of eliciting
YVLDHLIVV [A*02-YV9]	–	capable of eliciting	capable of eliciting

Source: paper PMC11847706, “Deep learning enhances the prediction of HLA class I-presented CD8^+ T cell epitopes in foreign pathogens” (Nature Machine Intelligence, 2025)
